Measurements published in patent US10758527B2, “Opioid agonist antagonist combinations” (Alkermes Pharma Ireland Limited, priority 2011, dated 2020).

Columns and labels:
[1] = tested on: Wistar-Kyoto (WKY) rats; assay: Forced swim test (FST); conditions: WKY rats treated with Buprenorphine (0.1 mg/kg)
Protocol: In the “forced swim test” (FST) rats are placed in a tank of water, from which they cannot escape, on two successive days; 15 minutes on the first day and 5 minutes on the second day. While in the water they will swim, attempt to climb the container wall or become “immobile” floating in the water. The total time rats are immobility increases between the first and second day. […] At 24 h after the first swim, rats were retested for 5 minutes. Videos were scored manually for immobility time (in seconds) using a manual stop watch in 60 second intervals by a rater blinded to the treatment groups. A rat was judged to be immobile if it was making only movements necessary to keep its head above water.

[2] = tested on: dopamine efflux in the Nucleus Accumbens shell (NAc-sh); assay: In vivo microdialysis of dopamine efflux in free-moving rats; conditions: antagonist given with Buprenorphine (0.1 mg/kg, SC)
Protocol: Experiments were conducted in rats to assess the ability of opioid antagonists to modulate buprenorphine-induced dopamine efflux in the Nucleus Accumbens shell (NAc-sh) region of the mesolimbic region of the brain. Male rats weighing 300-400 grams were used for all studies. To measure the efflux of dopamine in the NAc-sh an in vivo microdialysis method was utilized in free-moving rats. This method allows the sampling of extracellular cerebrospinal fluid (C SF) from specific brain regions of interest and measurement of neurotransmitter concentrations following the analysis of sampled dialysate with HPLC-EC.
Each rat underwent surgical implantation of microdialysis guide cannula (CMA 12, CMA Microdialysis) to guide the insertion of the microdialysis probe later on. Rats were anesthetized with a mixture of ketamine/xylazine (80/6 mg/kg IP) and placed in a stereotaxic apparatus. […] Guide cannula were capped with dummy probes until microdialysis probe insertion. On the day prior to experimentation (3-4 days post-surgery), animals were weighed to determine appropriate dose for test articles. A microdialysis probe (CMA 12, 2 mm membrane, CMA microdialysis) was then inserted through the guide cannula. […] Each sample was analyzed via HPLC-EC to determine neurotransmitter concentration of dopamine based upon a six-point standard curve.

Compound | immobility in forced swim test with increased concentrations of Compound-1 [1] | effect on buprenorphine-induced NAc-sh dopamine efflux [2]
NC(=O)c1ccc2c(c1O)[C@]13CCN(CC4CC4)[C@H](C2)[C@]1(O)CCC(=O)C3 [Compound-1] | Increase in immobility | Reduction in the efflux of dopamine
C=C1CC[C@@]2(O)[C@H]3Cc4ccc(C(N)=O)c(O)c4[C@@]2(CCN3CC2CC2)C1 [Compound-10] | – | Reduction in the efflux of dopamine
C=C1CC[C@@]2(O)[C@H]3Cc4ccc(O)c5c4[C@@]2(CCN3CC2CC2)[C@H]1O5 [Nalmefene, nalmefene, reference compound] | – | Reduction in the efflux of dopamine
O=C1CC[C@@]2(O)[C@H]3Cc4ccc(O)c5c4[C@@]2(CCN3CC2CC2)[C@H]1O5 [Naltrexone, naltrexone, reference compound] | – | Reduction in the efflux of dopamine
